{"source": "patent US20150315218A1", "about": "“SALTS OF PRODRUGS OF PIPERAZINE AND SUBSTITUTED PIPERIDINE ANTIVIRAL AGENTS” (Bristol-Myers Squibb Company, priority 2004, published 2015)", "key": {"[1]": {"experiment": "Single-dose oral toxicokinetic study of prodrugs in rats", "format": "in vivo, rat", "settings": "rat, in vivo", "description": "A 1-day oral toxicokinetic study in rats was conducted using the prodrug Iab (monolysine salt). Iab was administered at dosages of 16, 72, and 267 mg/kg (free acid) by oral gavage to three male rats/group using water as the vehicle (solution formulation). The dosages of prodrug free acid correspond to IVa (parent) molar equivalent dosages of 13, 57, and 211 mg/kg, respectively. The endpoint evaluated was plasma toxicokinetics of Iab and IVa in the individual rats.\nA 1-day oral toxicokinetic study in rats was conducted by using the prodrug Ibb (monolysine salt). Ibb was administered at dosages of 19, 64, and 236 mg/kg (free acid) by oral gavage to three male rats/group using water as the vehicle (solution formulation).\nA 1-day oral toxicokinetic study in rats was conducted using the prodrug Icb (disodium salt). Icb was administered at dosages of 5, 25, and 200 mg/kg (free acid) by oral gavage to three male rats/group using water as the vehicle (solution formulation)."}, "[2]": {"experiment": "Single-dose toxicokinetic and tolerability study of prodrugs in dogs", "format": "in vivo, dog", "settings": "both, dog, in vivo", "description": "A multi-phase study was conducted to evaluate the tolerability of the prodrug, Iab (monolysine salt) at dosages of 24, 90, or 240 mg/kg (free acid, molar equivalent to 19, 71, or 190 mg/kg of parent IVa, respectively) and the toxicokinetics of lab and IVa (4). Iab was administered to two female dogs/group once daily either as an aqueous solution (24 or 90 mg/kg) or dry-filled capsules (24, 90 [once and twice daily] or 240 mg/kg). The endpoints were: clinical signs, body weight, food consumption, and plasma toxicokinetics of lab and IVa. In all cases, a 1-week washout period was used between doses for all phases of the study. […]\nOn day 1, Icb was administered to one dog/sex/group once daily in dry-filled capsules at the above dosages. A 1-week washout period was used between doses in the study. On day 8, Icb was administered to one dog/sex/group once daily as an aqueous solution at 25 mg/kg or twice daily in dry-filled capsules at 46 or 125 mg/kg BID."}, "[3]": {"experiment": "IV and PO pharmacokinetic studies of prodrug salts (Iab, Ibb, Icb) in the rat, with historical parent data", "format": "in vivo, Sprague-Dawley rats", "settings": "male, Sprague-Dawley, in vivo, iv, […]", "description": "All blood samples (0.3 mL) were colleted in microtainers containing K2EDTA (Becton Dickinson, Franklin Lakes, N.J.) and placed on chipped ice. After centrifugation, plasma was separated and stored at −20° C. until analysis. The mono-lysine salt of Iab (Form 3, Lot 1) was used for the pharmacokinetic studies. The dosing solutions of Iab were prepared in either sterile water (for IV administration in dogs and monkeys) or distilled water (for all other dose administration).\nMale Sprague-Dawley rats (300-350 g, Hilltop Lab Animals, Inc., Scottsdale, Pa.) with cannulas implanted in the jugular vein were used. The rats were fasted overnight in the PO pharmacokinetic studies. Blood samples were collected from the jugular vein.\nIn the IV study, Iab was delivered at 1.4 mg/kg (free acid, or 1.1 mg/kg of IVa equivalent) as a bolus over 0.5 min (n=3).\nIn the PO study, Iab was administered at 7.9 mg/kg (free acid, or 6.3 mg/kg of IVa equivalent) by oral gavage (n=3). The concentration of the dosing solution was 4.0 mg/mL, and the dosing volume was 2 mL/kg.\nThe pharmacokinetic parameters of Iab and IVa were calculated by Non-Compartmental Analysis using the […]™ software program (version 4.0.2, InnaPhase Co., Philadelphia, Pa.). The Cmax and Tmax values were recorded directly from experimental observations. The AUC0-n and AUCtot values were calculated using the mixed log-linear trapezoidal summations. The total body clearance (Cl), mean residence time (MRT), and the steady state volume of distribution (Vss) were also calculated after intravenous administration. The absolute oral bioavailability (expressed as %) was estimated by taking the ratio of dose-normalized AUC values after oral doses to those after intravenous doses.\nAll blood samples (0.3 mL) were colleted in microtainers containing K2EDTA (Becton Dickinson, Franklin Lakes, N.J.) and placed on chipped ice. After centrifugation, plasma was separated and stored at −20° C. until analysis. The mono-lysine salt of Ibb (Form 3) was used for the pharmacokinetic studies. The dosing solutions of Ibb were prepared in either sterile water (for IV administration in dogs and monkeys) or distilled water (for all other dose administration).\n(§1) The Cmax and Tmax values were recorded directly from experimental observations. The AUC0-n and AUCtot values were calculated using the mixed log-linear trapezoidal summations. The total body clearance (Cl), mean residence time (MRT), and the steady state volume of distribution (Vss) were also calculated after intravenous administration. The absolute oral bioavailability (expressed as %) was estimated by taking the ratio of dose-normalized AUC values after oral doses to those after intravenous doses.\nIn the IV study, Icb was delivered at 1.4 mg/kg (free acid, or 1.1 mg/kg of IVe equivalent) as a bolus over 0.5 min (n=3).\nIn the PO study, Icb was administered at 6.9 mg/kg (free acid, or 5.6 mg/kg of IVe equivalent) by oral gavage (n=3).\nas §1"}}, "note": "Counter-ions that a name gives are not always drawn."}
{"molecule": "COc1cnc(-n2cnc(C)n2)c2c1c(C(=O)C(=O)N1CCN(C(=O)c3ccccc3)CC1)cn2COP(=O)(O)O", "note": "[Icb, [3-[(4-benzoylpiperazin-1-yl)(oxo)acetyl]-4-methoxy-7-(3-methyl-1H-1,2,4-triazol-1-yl)-1H-pyrrolo[2,3-c]pyridin-1-yl]methyl dihydrogen phosphate, 2-amino-2-(hydroxymethyl)propane-1,3-diol salt (1:1)]", "values": [{"measurement": "prodrug concentrations in plasma", "setting": "[1]; male, CD, 200 mg/kg", "result": "0.02 to 0.04", "unit": "µM"}, {"measurement": "prodrug in plasma", "setting": "[1]; 25 mg/kg", "result": "not detected"}, {"measurement": "Emesis (footnote 4)", "setting": "[2]", "result": "^4Emesis observed within 2 hours of dosing with capsule remnant present"}, {"measurement": "Emesis (footnote 5)", "setting": "[2]", "result": "^5Emesis observed within 2 hours of dosing with no capsule remnant"}, {"measurement": "levels of prodrug detected in some plasma samples", "setting": "[2]", "result": "≤ 100", "unit": "nM"}, {"measurement": "T1/2", "setting": "[3]", "result": "5.04 ± 0.72", "unit": "min"}]}
